Earlier results on one molecule are cited in patent US7632826B2, “Use of agonists of the glucocorticosteroid and/or mineralo-corticosteroid receptors, in particular corticosteroids for the treatment of addiction” (Curamentis Ltd., priority 1998, dated 2009).

SMILES strings stand for the structures.

For the molecule `CC(=O)NCCCS(=O)(=O)O` [acamprosate], the Patients still abstinent (Austria (Whitworth et al., 1996), placebo 21%) was 30%. Besides, the “Patients of the verum group still abstinent at end of study” value (German part of the study (Sass et al., 1996), after 48 weeks of treatment, placebo 20%) is 42%. Moreover, where the note is “average in Europe, placebo 85%”, the “Addicted patients who did not achieve permanent abstinence despite treatment” value is reported as “approximately 70%”.
